Experimental data from patent US9826773B2, “Brazzen multiple variants of increased sweetness, and production method for same” (CHUNG-ANG UNIVERSITY INDUSTRY—ACADEMIC COOPERATION …, priority 2012, dated 2017).

Assays:
human gustatory system = experiment: Measurement of sweetness activity using the human gustatory system (threshold of initially sensing sweetness); format: in vivo; details: for Level of sweetness compared to sucrose (g/g): mass basis; for Level of sweetness compared to sucrose (g/g) / Level of sweetness compared to sucrose (molecular): sucrose = 1; for Level of sweetness compared to sucrose (molecular): molar basis; for times as sweet as sucrose in the same mass: rounded values of the text; for times as sweet as the wild-type brazzein in the same mass: relative to wild-type brazzein
Protocol: Since brazzein is not a sugar but a protein, sweetness may not be measured using a saccharimeter. Consequently, the activity was measured using the human gustatory system. Since the threshold values of initially sensing sweetness are different per person, the activity was measured by comparing the concentrations of initially sensing sweetness between a sugar solution and a brazzein solution. The subjects were composed of 10 men and 10 women, who were trained in advance. First, the standard sugar solution was sequentially tasted, and the concentration of initially sensing sweetness was checked. Brazzein was dissolved in distilled water (10.0 mg/mL) and diluted to set the concentration to 1 to 20 ng/mL, and the sweetness of the solution was tasted and the concentration of sensing sweetness as the threshold value was checked to measure the relative activity of sweetness among sugar, wild-type brazzein, and a brazzein variant. Specifically, the activity was measured as follows. Before the activity was measured, the subject was informed in advance of the test date and time to sense the taste in tiptop conditions, and was prohibited from drinking alcohol the day before the test date and eating food immediately before the test. The subject washed the palate with bottled water prepared, and then a sample according to the concentration of each kind was tasted in each of an amount of 100 μl sequentially from a low concentration to a high concentration. The resulting data were obtained by discarding dubious values through the Q test, minimizing the standard deviation, and calculating the average.

[1] = background statement; cited from earlier work
[2] = same threshold expressed in molar concentration
[3] = trained panel of 10 men and 10 women, concentration of initially sensing sweetness, 100 μl samples tasted from low to high concentration

Molecule	Level of sweetness compared to sucrose (g/g) (human gustatory system)	Level of sweetness compared to sucrose (molecular) (human gustatory system)	times as sweet as sucrose in the same mass (human gustatory system)	times as sweet as the wild-type brazzein in the same mass (human gustatory system)	Threshold value of sweetness experiment (human gustatory system; [2])	Threshold value of sweetness experiment (human gustatory system; [3])	thermal stability [1]
K4D_H30R_E35D_E40A: brazzein multiple variant, 4th Lys to Asp in tertiary variant H30R_E35D_E40A, SEQ ID NO. 14 (DKCDKVYENYPVSKCQLANQCNYDCKLAKRARSGDCFYDAKRNLQCICDYCEY; Brazzein Variant)	2,000,000	36708861	2,000,000 times	2,500 times	0.00158 µM	0.0000010 g (100 mL)^−1	
K4R_H30R_E35D_E40R: brazzein multiple variant, 4th Lys to Arg in tertiary variant H30R_E35D_E40R, SEQ ID NO. 22 (DKCRKVYENYPVSKCQLANQCNYDCKLAKRARSGDCFYDRKRNLQCICDYCEY; Brazzein Variant)	2,000,000	37284000	2,000,000 times	2,500 times	0.00156 µM	0.0000010 g (100 mL)^−1	
K4D_H30R_E35D_E40K: brazzein multiple variant, 4th Lys to Asp in tertiary variant H30R_E35D_E40K, SEQ ID NO. 11 (DKCDKVYENYPVSKCQLANQCNYDCKLAKRARSGDCFYDKKRNLQCICDYCEY; Brazzein Variant)	1,598,481	28379848	1,500,000 times	1,920 times	0.00204 µM	0.0000013 g (100 mL)^−1	
K4R_H30R_E35D_E40A: brazzein multiple variant, 4th Lys to Arg in tertiary variant H30R_E35D_E40A, SEQ ID NO. 16 (DKCRKVYENYPVSKCQLANQCNYDCKLAKRARSGDCFYDAKRNLQCICDYCEY; Brazzein Variant)	2,857,143	52727273	2,900,000 times	3,570 times	0.0011 µM	0.0000007 g (100 mL)^−1	
Monellin							low thermal stability
K4E_H30R_E35D_E40K: brazzein multiple variant, 4th Lys to Glu in tertiary variant H30R_E35D_E40K, SEQ ID NO. 12 (DKCEKVYENYPVSKCQLANQCNYDCKLAKRARSGDCFYDKKRNLQCICDYCEY; Brazzein Variant)	1,666,666	30812500	1,700,000 times	2,080 times	0.00188 µM	0.0000012 g (100 mL)^−1	
K4E_H30R_E35D_E40D: brazzein multiple variant, 4th Lys to Glu in tertiary variant H30R_E35D_E40D, SEQ ID NO. 18 (DKCEKVYENYPVSKCQLANQCNYDCKLAKRARSGDCFYDDKRNLQCICDYCEY; Brazzein Variant)	1,250,000	23062250	1,250,000 times	1,560 times	0.00251 µM	0.0000016 g (100 mL)^−1	
K4R_H30R_E35D_E40D: brazzein multiple variant, 4th Lys to Arg in tertiary variant H30R_E35D_E40D, SEQ ID NO. 19 (DKCRKVYENYPVSKCQLANQCNYDCKLAKRARSGDCFYDDKRNLQCICDYCEY; Brazzein Variant)	1,666,666	30860187	1,700,000 times	2,080 times	0.00188 µM	0.0000012 g (100 mL)^−1	
WT-Brazzein: wild-type brazzein, molecular weight 6501 in Table 3 (QDKCKKVYENYPVSKCQLANQCNYDCKLDKHARSGECFYDEKRNLQCICDYCEY; UniProt P56552 1-54, looked up) [reference compound]	800	15,082			3.846 µM	0.0025 g (100 mL)^−1	
OC[C@H]1O[C@@](CO)(O[C@H]2O[C@H](CO)[C@@H](O)[C@H](O)[C@H]2O)[C@@H](O)[C@@H]1O [Sucrose, reference compound]	1	1			58,000 μM	2.0 g (100 mL)^−1	
K4E_H30R_E35D_E40R: brazzein multiple variant, 4th Lys to Glu in tertiary variant H30R_E35D_E40R, SEQ ID NO. 21 (DKCEKVYENYPVSKCQLANQCNYDCKLAKRARSGDCFYDRKRNLQCICDYCEY; Brazzein Variant)	1,818,181	33761273	1,800,000 times	2,270 times	0.00172 µM	0.0000011 g (100 mL)^−1	
K4R_H30R_E35D_E40K: brazzein multiple variant, 4th Lys to Arg in tertiary variant H30R_E35D_E40K, SEQ ID NO. 13 (DKCRKVYENYPVSKCQLANQCNYDCKLAKRARSGDCFYDKKRNLQCICDYCEY; Brazzein Variant)	2,000,000	37131600	2,000,000 times	2,500 times	0.00156 µM	0.0000010 g (100 mL)^−1	
K4D_H30R_E35D_E40R: brazzein multiple variant, 4th Lys to Asp in tertiary variant H30R_E35D_E40R, SEQ ID NO. 20 (DKCDKVYENYPVSKCQLANQCNYDCKLAKRARSGDCFYDRKRNLQCICDYCEY; Brazzein Variant)	1,818,181	33687455	1,800,000 times	2,270 times	0.00172 µM	0.0000011 g (100 mL)^−1	
K4D_H30R_E35D_E40D: brazzein multiple variant, 4th Lys to Asp in tertiary variant H30R_E35D_E40D, SEQ ID NO. 17 (DKCDKVYENYPVSKCQLANQCNYDCKLAKRARSGDCFYDDKRNLQCICDYCEY; Brazzein Variant)	1,333,333	24545600	1,300,000 times	1,670 times	0.00236 µM	0.0000015 g (100 mL)^−1	
K4E_H30R_E35D_E40A: brazzein multiple variant, 4th Lys to Glu in tertiary variant H30R_E35D_E40A, SEQ ID NO. 15 (DKCEKVYENYPVSKCQLANQCNYDCKLAKRARSGDCFYDAKRNLQCICDYCEY; Brazzein Variant)	2,000,000	36708861	2,000,000 times	2,500 times	0.00158 µM	0.0000010 g (100 mL)^−1	
